Data as given in PMC10600239, “Selective MCL-1 inhibitor ABBV-467 is efficacious in tumor models but is associated with cardiac troponin increases in patients” (Communications Medicine, 2023).
“And” between values parts separate entries of the source, which are not always exact repeats. Equal entries are not always repeated. Where two headings read alike, the source gives them in different places.

Columns and labels:
[1] = tested on: AMO-1 cells; assay: In vitro cell viability assay (CellTiter-Glo); assay type: cell-based, human
Method: (§1) All cell lines were grown and treated in RPMI 1640 or Dulbecco’s modified Eagle medium (Sigma, St. Louis, MO) supplemented with 10% fetal bovine serum (Gibco) or 10% human serum (Sigma) and maintained in a humidified incubator at 5% CO2 and 37 °C. DLD-1, MV4-11, NCI-H929 (all ATCC, Manassas, VA, USA) and AMO-1 (DSMZ, Braunschweig, Germany) cells were plated 4000 cells per well in 384-well tissue culture plates and treated with compounds of interest for 24 h at 37 °C, 5% CO2 humidified incubator. Each concentration was tested in duplicate at least 3 separate times. Adherent cells were allowed to adhere overnight prior to treatment. Alternatively, AMO-1 or NCI-H929 cells were treated with ABBV-467 for the indicated contact times (1–24 h) at 37 °C in a 5% CO2 humidified incubator and washed 3 times with compound-free media prior to incubation for the remainder of a 24-h treatment period. Cell viability was subsequently determined using CellTiter-Glo (Promega, Madison, WI, USA) according to the manufacturer’s instructions.
(§2) For in vitro viability assays, mean EC50 and EC90 values were determined from the resulting dose-response curves from at least 3 independent experiments, and depict the mean ± standard error of the mean.
(§3) Fig. 2 Apoptosis induced by ABBV-467 is mechanism based and induces cell death in MCL-1-dependent cell lines after short target engagement periods. H929 cells were treated with ABBV-467 in the presence or absence of the pan-caspase inhibitor z-VAD-fmk (50 µM) and the impact on caspase-3/7 activation (a), mitochondrial membrane potential (ΔΨm; b), and apoptosis (c) determined. Alternatively, BAK-deficient SKBR3 cells were treated with ABBV-467 for 24 h and the impact on cell viability compared with the parental cell line, determined by CellTiter-Glo. Inset depicts a western blot of BAK and BAX expression in SKBR3 cell variants using GAPDH as a loading control. Each of the 3 proteins were probed on separate blots (d). Data in (a–d) are presented as the mean ± standard error of the mean. H929 and AMO-1 cells were treated with ABBV-467 at the indicated concentrations and the impact on caspase-3/7 activation and viability (DRAQ7-positive) cells determined over time by Incucyte®. Data are presented as the mean ± standard deviation (e). H929 or AMO-1 cells were cultured in media containing 10% human serum and treated with ABBV-467 for the indicated contact times. Cells were subsequently washed 3 times with drug-free media and incubated in drug-free media for the remainder of the 24-h treatment period at 37 °C before cell viability was determined by CellTiter-Glo. Mean EC50 and EC90 values were determined from the resulting dose-response curves from at least 3 independent experiments, each assessed in quadruplicate, and depict the mean ± standard error of the mean. Presented ABBV-467 dose-response curves in H929 and AMO-1 cells were compiled from at least 3 independent experiments (f).

[2] = tested on: H929 cells; assay: In vitro cell viability assay (CellTiter-Glo); assay type: cell-based, human
Method: as §1, §2, §3

[3] = tested on: DLD-1 cells; assay: In vitro cell viability assay (CellTiter-Glo); assay type: cell-based, human; conditions: Homo sapiens
Method: as §1, §2

[4] = tested on: MV4-11 cells; assay: In vitro cell viability assay (CellTiter-Glo); assay type: cell-based, human
Method: as §1, §2

[5] = tested on: SKBR3 cells; assay: Cell viability of parental and BAK-, BAX-, BCL2L11-, PMAIP1-deficient SKBR3 cells (CellTiter-Glo); assay type: cell-based; set-up: SKBR3 BAK Fig 2D: unit not given here
Method: as §3
Supplementary Fig. S5: SKBR3 cells deficient in BAX, BAK , PM AIP 1 (gene encoding the protein NOXA),
BCL 2L 11 (gene encoding the protein BIM) were treated with ABBV-467 for 24 hours and the impact on
cell death compared to the parental cell line determined by CellTiter- Glo™.

[6] = AMO-1, individual determinations, read-out: Individual EC50
[7] = Homo sapiens, AMO1, AMO-1, arithmetic mean, read-out: Arithmetic Mean EC50 nM
[8] = Homo sapiens, AMO1, AMO-1, arithmetic mean, read-out: Arithmetic Mean EC50 µM
[9] = Homo sapiens, AMO1, AMO-1, individual determinations, read-out: Individual EC50
[10] = Homo sapiens, NCI-H929, NCI-H929, arithmetic mean, read-out: Arithmetic Mean EC50 nM
[11] = Homo sapiens, NCI-H929, NCI-H929, arithmetic mean, read-out: Arithmetic Mean EC50 µM
[12] = NCI-H929, individual determinations, read-out: Individual EC50
[13] = DLD-1, arithmetic mean, read-out: Arithmetic Mean EC50
[14] = DLD-1, individual determinations, read-out: Individual EC50
[15] = Homo sapiens, MV4-11, MV4-11, arithmetic mean, read-out: Arithmetic Mean EC50 nM
[16] = Homo sapiens, MV4-11, MV4-11, arithmetic mean, read-out: Arithmetic Mean EC50 µM
[17] = Homo sapiens, MV4-11, MV4-11, individual determinations, read-out: Individual EC50
[18] = MV4-11, individual determinations, read-out: Individual EC50
[19] = Homo sapiens, AMO1, 24 h, read-out: AMO-1 EC50 (nM, 10% FBS), 10% FBS, 24 h continuous treatment
[20] = Homo sapiens, NCI-H929, 24 h, read-out: H929 EC50 (nM, 10% FBS), 10% FBS, 24 h continuous treatment
[21] = DLD-1, read-out: DLD-1 EC50 (nM), 10% FBS, 24 h continuous treatment
[22] = Homo sapiens, MV4-11, 24 h, read-out: MV4-11 EC50 (nM, 10% FBS), 10% FBS, 24 h continuous treatment

EC50 [2, 10]	EC50 [2, 11]	EC50 [2, 12]	EC50 [3, 13]	EC50 [3, 14]	EC50 [4, 15]	EC50 [4, 16]	EC50 [4, 17]	EC50 [4, 18]	EC50 [2, 20]	EC50 [3, 21]	EC50 [4, 22]	Compound	EC50 [1, 6]	EC50 [1, 7]	EC50 [1, 8]	EC50 [1, 9]	EC50 [1, 19]	other results
31.6 nM	31.6 nM	22 nM and 20.4 nM and 19.8 nM and 64.4 nM	> 10000 nM	> 10000 nM	34.9 nM	34.9 nM	36.3 nM	35 nM and 33.3 nM	–	–	–	Cc1c2c(nn1C)CSCc1cc(n(C)n1)CSc1cc(c3ccccc3c1)OCCCc1c(C(=O)O)n(C)c3c-2c(Cl)ccc13 [AZD-5991]	18.6 nM and 18.3 nM and 31.9 nM	22.9 nM	22.9 nM	22.8 nM	–	–
–	–	–	–	–	–	–	–	–	31.7 nM	> 10000 nM	34.9 nM	Cc1c2c(nn1C)CSCc1cc(n(C)n1)CSc1cc(c3ccccc3c1)OCCCc1c(C(=O)O)n(C)c3c-2c(Cl)ccc13 [AZD5991, reference compound]	–	–	–	–	22.9 nM	–
–	–	–	–	–	–	–	–	–	–	–	–	Cc1c(Cl)c2c(Cl)c(C)c1-c1c(-c3ccc(F)cc3)sc3ncnc(c13)O[C@@H](C(=O)O)Cc1cc(ccc1OCc1ccnc(-c3ccc(OC[C@H]4COCCO4)cc3)n1)OC[C@@H](CN1CCN(C)CC1)O2 [Compound A-1747745.7]	–	–	–	–	–	SKBR3 BAK Fig 2D ([5]; SKBR3 BAK-/-, Log [A-1747745.7] uM 0.045757): 84.0406 and 88.7361 and 91.3691; SKBR3 BAK Fig 2D ([5]; SKBR3 BAK-/-, Log [A-1747745.7] uM 0.522879): 91.5492 and 90.6375 and 98.324; SKBR3 BAK Fig 2D ([5]; SKBR3 BAK-/-, Log [A-1747745.7] uM 1): 71.243 and 87.693 and 82.7613; SKBR3 BAK Fig 2D ([5]; SKBR3 BAK-/-, Log [A-1747745.7] uM -0.43136): 93.7393 and 91.7734 and 95.9555; SKBR3 BAK Fig 2D ([5]; SKBR3 BAK-/-, Log [A-1747745.7] uM -0.90849): 91.4405 and 96.0162 and 91.1767; SKBR3 BAK Fig 2D ([5]; SKBR3 BAK-/-, Log [A-1747745.7] uM -1.38561): 96.4117 and 96.5016 and 91.1114; SKBR3 BAK Fig 2D ([5]; SKBR3 BAK-/-, Log [A-1747745.7] uM -1.86273): 100.833 and 96.8873 and 90.9219; SKBR3 BAK Fig 2D ([5]; SKBR3 BAK-/-, Log [A-1747745.7] uM -2.33985): 101.031 and 99.3037 and 92.3815; SKBR3 BAK Fig 2D ([5]; SKBR3 BAK-/-, Log [A-1747745.7] uM -2.81697): 103.475 and 99.2425 and 96.192; SKBR3 BAK Fig 2D ([5]; SKBR3 BAK-/-, Log [A-1747745.7] uM -3.29409): 92.6268 and 101.141 and 97.8192; SKBR3 BAK Fig 2D ([5]; SKBR3 BAK-/-, Log [A-1747745.7] uM -3.79): 106.888 and 100.173 and 98.0201; SKBR3 BAK Fig 2D ([5]; SKBR3 Parent, Log [A-1747745.7] uM -1.86273): 28.8447 and 52.516 and 42.8969; SKBR3 BAK Fig 2D ([5]; SKBR3 Parent, Log [A-1747745.7] uM -2.33985): 83.0425 and 94.5116 and 88.5924; SKBR3 BAK Fig 2D ([5]; SKBR3 Parent, Log [A-1747745.7] uM -2.81697): 98.7606 and 99.166 and 97.8729; SKBR3 BAK Fig 2D ([5]; SKBR3 Parent, Log [A-1747745.7] uM -3.29409): 89.9706 and 97.7937 and 96.3217; SKBR3 BAK Fig 2D ([5]; SKBR3 Parent, Log [A-1747745.7] uM -3.79): 100.8 and 103.293 and 99.6415
–	–	–	–	–	–	–	–	–	195 nM	> 10000 nM	106 nM	CO[C@H]1/C=C/C[C@H](C)[C@@H](C)S(=O)(=O)NC(=O)c2ccc3c(c2)N(C[C@@H]2CC[C@H]21)C[C@@]1(CCCc2cc(Cl)ccc21)CO3 [AMG 176, reference compound]	–	–	–	–	90.6 nM	–
195 nM	195 nM	–	> 10000 nM	> 10000 nM	106 nM	106 nM	–	85.5 nM and 203 nM	–	–	–	CO[C@H]1/C=C/C[C@H](C)[C@@H](C)S(=O)(=O)NC(=O)c2ccc3c(c2)N(C[C@@H]2CC[C@H]21)C[C@@]1(CCCc2cc(Cl)ccc21)CO3 [AMG-176]	105 nM and 130 nM and 174 nM	90.6 nM	90.6 nM	–	–	–
13 nM	13 nM	13.4 nM and 12.9 nM	> 10000 nM	> 10000 nM	43.6 nM	43.6 nM	44.3 nM	42 nM and 44.6 nM	13 nM	> 10000 nM	43.6 nM	CO[C@]1(CN2CCN3CCCC[C@@H]3C2)/C=C/C[C@H](C)[C@@H](C)S(=O)(=O)NC(=O)c2ccc3c(c2)N(C[C@@H]2CC[C@H]21)C[C@@]1(CCCc2cc(Cl)ccc21)CO3 [AMG 397, reference compound]	13.1 nM and 12.8 nM	13.5 nM	13.5 nM	14.8 nM	13.5 nM	EC50 ([2]; Homo sapiens, NCI-H929, NCI-H929, individual determinations, read-out: Individual EC50): 12.7 nM
